Each structure is given as a SMILES string.

From ChEMBL document CHEMBL1138219 (J Med Chem, 2006) come the findings set out here.

What all share (format): cell-based
The nature of data set [1]: Cytotoxicity against human HCT116 cell line. The conditions noted are these: HCT-116 cells.
A short description of data set [2]: Cytotoxicity against human DU145 cell line. The conditions noted are these: DU-145 cells.
A short description of data set [3]: Cytotoxicity against human MDA-MB-435 cell line. The conditions noted are these: MDA-MB-435 cells.
Data set [4] in a line: Cytotoxicity against human OVCAR-3 cell line. The conditions noted are these: OVCAR-3 cells.
Data set [5] can be described thus: Cytotoxicity against human HOP62 cell line. The conditions noted are these: HOP-62 cells.
The nature of data set [6]: Cytotoxicity against human SF539 cell line. The conditions noted are these: SF-539 cells.
Data set [7] is described as follows: Cytotoxicity against human SN12C cell line. The conditions noted are these: SN12C cells.
A short description of data set [8]: Cytotoxicity against human UACC62 cell line. The conditions noted are these: UACC-62 cells.

Broadly, the GI50 is the concentration giving 50% growth inhibition. Lower therefore signals more potent growth inhibition. As for `COc1ccc2c(c1)C(=O)c1c-2n(CCCN=[N+]=[N-])c(=O)c2cc([N+](=O)[O-])ccc12`, the GI50 is less than 0.001 µM in data set [1]; less than 0.001 µM in data set [2]; 0.251 µM in data set [3]; 0.155 µM in data set [4]; less than 0.001 µM in data set [5]; less than 0.001 µM in data set [6].
As to `COc1cc2c(cc1OC)-c1c(c3ccc([N+](=O)[O-])cc3c(=O)n1CCCBr)C2=O`, the GI50 in data set [7] is 4.27 µM; in data set [1] it was 4.27 µM; in data set [2], 24.5 µM; in data set [3], 25.1 µM; in data set [4], 70.8 µM; in data set [5], 20.9 µM. In addition, the GI50 in data set [8] was determined as 2.82 µM; in data set [6], 10.5 µM.
As for `COc1cc2c(c(OC)c1OC)C(=O)[C@@H]1c3ccc([N+](=O)[O-])cc3C(=O)N(CCCBr)[C@H]21` (relative stereo), the GI50 in data set [7] is 0.257 µM; in data set [1] it was less than 0.01 µM; in data set [2] it was 1.02 µM; in data set [3], less than 0.01 µM; in data set [4], less than 0.01 µM; in data set [5], less than 0.01 µM. The GI50 is less than 0.01 µM in data set [8] and 0.468 µM in data set [6].
For the molecule `COc1cc2c(cc1OC)[C@@H]1[C@H](C2=O)c2ccc([N+](=O)[O-])cc2C(=O)N1CCCBr` (relative stereo), the concentration for 50% growth inhibition (GI50) came to 7.59 µM in data set [7]; 4.57 µM in data set [1]; 14.5 µM in data set [2]; 2.82 µM in data set [3]; 2.04 µM in data set [4]; 13.8 µM in data set [5]. In addition, the GI50 in data set [8] is greater than 100 µM; in data set [6] it was 11.7 µM.
On to `COc1cc2c(cc1OC)-c1c(c3ccc([N+](=O)[O-])cc3c(=O)n1CCCN)C2=O`, for which the GI50 in data set [7] turned out to be 0.851 µM; in data set [1], 0.589 µM; in data set [2] it was 0.676 µM; in data set [3], 6.46 µM; in data set [4], 8.13 µM; in data set [5] it was 1.55 µM. The GI50 amounted to 2.51 µM in data set [8] and 0.005 µM in data set [6].
For the molecule `COc1ccc2c(c1OC)-c1c(c3ccc([N+](=O)[O-])cc3c(=O)n1CCCBr)C2=O`, the GI50 was 36.3 µM in data set [7]; 19.1 µM in data set [1]; greater than 100 µM in data set [4]; 21.9 µM in data set [5]; 18.2 µM in data set [8].
Turning to `COc1cccc2c1-c1c(c3ccc([N+](=O)[O-])cc3c(=O)n1CCCCl)C2=O`, the GI50 in data set [7] turned out to be 15.8 µM; in data set [1] it was 2.45 µM; in data set [3] it was 50.1 µM; in data set [4], 50.1 µM; in data set [5], 5.5 µM; in data set [8] it was 2.4 µM.
On to `COc1cc2c(c(OC)c1OC)C(=O)c1c-2n(CCCN)c(=O)c2cc([N+](=O)[O-])ccc12`, for which the GI50 in data set [7] came to 2.09 µM; in data set [1] it was 0.138 µM; in data set [2], 1.15 µM; in data set [3], 1.07 µM; in data set [4], 1.05 µM; in data set [5], 0.676 µM. Also, the results for the GI50 in data set [8] and in data set [6] were 6.61 µM and 1.35 µM, respectively.
In the case of `COc1cc2c(cc1OC)-c1c(c3ccc([N+](=O)[O-])cc3c(=O)n1CCCN=[N+]=[N-])C2=O`, the GI50 in data set [7] is 46.8 µM; in data set [1] it was 31.6 µM; in data set [2] it was 87.1 µM; in data set [3], greater than 100 µM; in data set [4], greater than 100 µM; in data set [5] it was 29.5 µM. The GI50 in data set [8] stood at 51.3 µM; in data set [6] it was 36.3 µM.
For `COc1ccc2c(c1OC)-c1c(c3ccc([N+](=O)[O-])cc3c(=O)n1CCCN)C2=O`, the GI50 in data set [7] came out at 0.977 µM; in data set [1], 1.51 µM; in data set [2], 0.832 µM; in data set [3] it was 9.12 µM; in data set [4] it was 14.1 µM; in data set [5], 8.32 µM. In addition, the GI50 came out at 1.1 µM in data set [8] and 1.35 µM in data set [6].
Turning to `COc1cc2c(c(OC)c1OC)-c1c(c3ccc([N+](=O)[O-])cc3c(=O)n1CCCBr)C2=O`, the GI50 in data set [7] is 19.5 µM; in data set [1], 18.6 µM; in data set [3], greater than 100 µM; in data set [4] it was greater than 100 µM; in data set [5] it was 15.8 µM; in data set [8], 30 µM. Besides, halving of growth in data set [6] (GI50) required 4.47 µM.
With `COc1cc2c(c(OC)c1OC)C(=O)c1c-2n(CCCN=[N+]=[N-])c(=O)c2cc([N+](=O)[O-])ccc12`, the GI50 is greater than 100 µM in data set [7]; 36.3 µM in data set [1]; greater than 100 µM in data set [2]; greater than 100 µM in data set [3]; greater than 100 µM in data set [4]; 30.9 µM in data set [5]. Also, the figures for the concentration for 50% growth inhibition (GI50) in data set [8] and in data set [6] were 39.8 µM and 38.9 µM, respectively.
`NCCCn1c2c(c3ccc([N+](=O)[O-])cc3c1=O)C(=O)c1cc3c(cc1-2)OCO3`: the GI50 in data set [7] was less than 0.01 µM; in data set [1], less than 0.01 µM; in data set [2] it was less than 0.01 µM; in data set [3] it was 0.025 µM; in data set [4] it was 0.302 µM; in data set [5], less than 0.01 µM. Further, the GI50 in data set [8] is 0.017 µM; in data set [6] it was less than 0.01 µM.
For the molecule `COc1cc2c(c(OC)c1OC)-c1c(c3ccc([N+](=O)[O-])cc3c(=O)n1CCCN)C2=O`, the GI50 was found to be 3.98 µM in data set [7]; 0.832 µM in data set [1]; 7.24 µM in data set [2]; 0.871 µM in data set [3]; 10.7 µM in data set [4]; 0.933 µM in data set [5]. Also, the figures for the GI50 in data set [8] and in data set [6] were 9.12 µM and 1.38 µM, respectively.
Consider `COc1ccc2c(c1)C(=O)c1c-2n(CCCCl)c(=O)c2cc([N+](=O)[O-])ccc12`, for which the GI50 in data set [7] is less than 0.01 µM; in data set [1], 0.794 µM; in data set [2] it was 0.036 µM; in data set [3], 3.24 µM; in data set [4] it was 3.39 µM; in data set [5], 0.295 µM. Moreover, the GI50 in data set [8] was less than 0.01 µM; in data set [6], 0.027 µM.
With `COc1ccc2c(c1OC)-c1c(c3ccc([N+](=O)[O-])cc3c(=O)n1CCCN=[N+]=[N-])C2=O`, the GI50 in data set [7] stood at 11.5 µM; in data set [1] it was 2.95 µM; in data set [2], 4.9 µM; in data set [3], 72.4 µM; in data set [4] it was 56.2 µM; in data set [5], 5.01 µM. Also, the GI50 in data set [8] is 4.57 µM; in data set [6], 5.24 µM.
As for `COc1cc2c(c(OC)c1OC)-c1c(c3ccc([N+](=O)[O-])cc3c(=O)n1CCCN=[N+]=[N-])C2=O`, the GI50 was 30.2 µM in data set [7]; 14.1 µM in data set [1]; 70.8 µM in data set [2]; greater than 100 µM in data set [3]; 45.7 µM in data set [4]; 15.5 µM in data set [5]. Further, the results for the GI50 in data set [8] and in data set [6] were 32.4 µM and 13.5 µM, respectively.
For the molecule `COc1ccc2c(c1)C(=O)c1c-2n(CCCN)c(=O)c2cc([N+](=O)[O-])ccc12`, the GI50 in data set [7], in data set [1], in data set [5], in data set [8] and in data set [6] was less than 0.01 µM each time.
